Results on 2 compounds are retold here after patent US20240327372A1, “PREPARATION OF PHENE[…] […] STEREOISOMERS THEREOF AND PRECURSORS THEREOF” (priority 2022, published 2024).

The target in series [1] is serotonin transporter (SERT) (Rattus norvegicus (Rat), UniProt P31652). In words: Competition radioligand binding, [3H]Citalopram, rat brain membranes. As to conditions: for IC50 / Ki: 5-HT transporter; for Ki: Cheng-Prusoff. An excerpt:
Rat brain (Sprague Dawley, 200-250 g) synaptosomes were isolated from midbrain and hindbrain for serotonin transporter assays, striatum for dopamine transporter assays, and hippocampus plus overlying occipital cortex for norepinephrine transporter assays. Radioligands used were: [^3H]Citalopram 81.4 Ci/mmol (PerkinElmer NET1039250UC; Lot No. 2960876). [^3H]WIN35428 82.8 Ci/mmol (PerkinElmer NET1033250UC; Lot No. 2891473). [^3H]Nisoxetine 79.2 Ci/mmol (PerkinElmer NET1084250UC; Lot No. 2970324). Non-specific compounds used were: Citalopram (Tocris Bioscience 1427). JHW007 (Tocris Bioscience 4351). Nomifensine (Abcam ab146004). Test Compounds for the study were: racemic methylone HCl; (R)-methylone HCl; (S)-methylone HCl.
For membrane preparations, rat brains were dissected, tissue was added to ice-cold lysis buffer (50 mM Tris HCl; 5 mM MgCl2; 5 mM EDTA; protease inhibitor cocktail) and homogenized. The homogenate was centrifuged at 100×g for 2 minutes and the supernatant divided into polypropylene Eppendorf tubes. The supernatants were centrifuged at 17,000×g for 10 minutes at 4° C. to re-pellet the cell lysate. The pellet was resuspended in fresh wash buffer (50 mM Tris-HCl; 5 mM MgCl2; 5 mM EDTA) and centrifuged a third time at 17,000×g for 10 minutes at 4° C. The pellet was resuspended in wash buffer containing 10% sucrose as a cryoprotectant, divided into aliquots (0.3 mL) and stored at −80° C. A sample of the homogenate was analyzed for protein content using the MERCK® BCA assay. On the day of the assay, the membrane preparation was thawed and the pellet resuspended in final assay buffer.
Competition binding assays were carried out in 96-well polypropylene plates in a final volume of 250 μL per well. To each well was added 150 μL membranes, 50 μL of test compound, non-specific compound or buffer, and 50 μL radioligand solution in buffer. The plate was incubated at 30° C. for 90 minutes with gentle agitation. The incubation was stopped by vacuum filtration onto presoaked (wash buffer with PEI) GF/C filters using a 96-well FILTERMATE™ harvester, followed by 5 washes with ice-cold wash buffer. Filters were then dried under a warm air stream, sealed in polyethylene, scintillation cocktail added, and the radioactivity counted in a WALLAC® TriLux 1450 MicroBeta counter. For each concentration of drug, non-specific binding was subtracted from total binding to give specific binding. Data was fitted using the non-linear curve fitting routines in PRISM® (Graphpad Software Inc) to determine IC50. Ki was subsequently calculated using the ChengPrusoff equation.

Another series has as its target SERT (Rattus norvegicus (Rat), UniProt P31652). In words: 5-HT release study. The series is classed as biochemical.
The target in a further series is DAT (Rattus norvegicus (Rat), UniProt P23977). The series is described as follows: DA release study. The series is classed as biochemical.
The next series concerns the target hERG (Homo sapiens (Human), UniProt Q12809). The series is described as follows: hERG Potassium Channel Assay, Qube APC. As to conditions: Antagonist mode, test compound. The series is classed as cell-based. The method, then:
Where presented, IC50 values were determined by a non-linear, least squares regression analysis.
Recombinant HEK-293 cells stably transfected with human Nav1.5 cDNA, recombinant HEK293 cell line expressing the human Cav1.2 (L-type voltage gated calcium channel, hCav1.2 α1C/β2a/α2δ1, and recombinant CHO-K1 cells stably transfected with human hERG cDNA were used separately in each of these assays.
hERG Potassium Channel Assay—Qube APC After whole cell configuration is achieved, the cells are held at −80 mV. Cells are held at this voltage for 50 ms to measure the leak current, which is subtracted from the tail current on-line. The cells are depolarized to +40 mV for 500 ms and then to −80 mV over a 100 ms ramp to elicit the hERG tail current. This paradigm is delivered once every 8 s to monitor the current amplitude.

The test system of the next series is cardiac ion channels. The series is described as follows: In vitro cardiovascular safety screening test (ion channel panel, overall). It is filed as cell-based, human. As to conditions: whole panel. How it is done: An in vitro cardiovascular safety screening test was run to investigate the effects of racemic methylone and two methylone stereoisomers ((R)-methylone and (S)-methylone) on selected ion channels critically linked to cardiovascular function and activity.
Electrophysiological assays were conducted to profile three compounds ((R)-methylone, (S)-methylone, or racemic methylone) for activities on the ion channel targets specified below using the Qube electrophysiological platform. Where presented, IC50 values were determined by a non-linear, least squares regression analysis. Reference standards were run as an integral part of each assay to ensure the validity of the results obtained.
Ion Channels tested were Eurofins Panel Part Number: CPROFullQB2DR Voltage-Gated Sodium: HEK-Nav1.5 (Peak), HEK-Nav1.5 (Late, Antagonist) Voltage-Gated Potassium: HEK-Kv4.3/KChIP2, CHO-hERG, CHO-KCNQ1/minK Voltage-Gated Calcium: HEK-Cav1.2 Inward-Rectifying Voltage-Gated Potassium: HEK-Kir2.1.

The subject of series [2] is rat forced swim test (FST). The series is described as follows: Rat forced swim test (FST). It is filed as in vivo. As to conditions: single dose 10 mg/kg IP, 30 min before testing. How it is done:
All FST studies are performed and scored by an experimenter blind to treatment group and according to standard protocols. Briefly, rats are placed in a circular plexiglass container filled with water. Water temperature is maintained at 22-25° C. and changed for every animal. Day 1 (Training) consists of a 15 min acclimation trial, and Day 2 (Testing, 24 h later) consists of the 5 min test. A time sampling procedure is employed where animals are observed every 5 seconds for the duration of the test session (60 counts or 5 minutes) and scored for immobility (defined as the failure to struggle), swimming (defined as a circular movement around the tank), or climbing (defined as an upwards escape behavior). Data are expressed as the percent of the testing session (e.g., the number of immobility counts divided by 60). A p-value less than 0.05 indicates statistical significance after typical statistical analyses (e.g., unpaired t-test or ANOVA).
To determine that the prodrug and/or enantiomer has an antidepressant-like effect and to compare it to methylone, rats are treated with each compound 30 min prior to testing. Additional tests are run 24, 72, 168 hours post-dose or longer.
Racemic methylone (10 mg/kg, IP) has a maximal antidepressant-like effect in the rat forced swim test (FST), reducing immobility by nearly 100% compared to vehicle treated controls. To determine whether one enantiomer of methylone could mimic the robust antidepressant-like effect of racemic methylone, rats were treated with a single dose of racemic methylone, (R)-methylone, (S)-methylone (all 10 mg/kg, IP) or vehicle 30 min before testing in the FST. […] Therefore, all of the activity of methylone appears to be driven by the activity of one enantiomer ((S)-methylone).

hERG, sequence (Q12809 whole entry): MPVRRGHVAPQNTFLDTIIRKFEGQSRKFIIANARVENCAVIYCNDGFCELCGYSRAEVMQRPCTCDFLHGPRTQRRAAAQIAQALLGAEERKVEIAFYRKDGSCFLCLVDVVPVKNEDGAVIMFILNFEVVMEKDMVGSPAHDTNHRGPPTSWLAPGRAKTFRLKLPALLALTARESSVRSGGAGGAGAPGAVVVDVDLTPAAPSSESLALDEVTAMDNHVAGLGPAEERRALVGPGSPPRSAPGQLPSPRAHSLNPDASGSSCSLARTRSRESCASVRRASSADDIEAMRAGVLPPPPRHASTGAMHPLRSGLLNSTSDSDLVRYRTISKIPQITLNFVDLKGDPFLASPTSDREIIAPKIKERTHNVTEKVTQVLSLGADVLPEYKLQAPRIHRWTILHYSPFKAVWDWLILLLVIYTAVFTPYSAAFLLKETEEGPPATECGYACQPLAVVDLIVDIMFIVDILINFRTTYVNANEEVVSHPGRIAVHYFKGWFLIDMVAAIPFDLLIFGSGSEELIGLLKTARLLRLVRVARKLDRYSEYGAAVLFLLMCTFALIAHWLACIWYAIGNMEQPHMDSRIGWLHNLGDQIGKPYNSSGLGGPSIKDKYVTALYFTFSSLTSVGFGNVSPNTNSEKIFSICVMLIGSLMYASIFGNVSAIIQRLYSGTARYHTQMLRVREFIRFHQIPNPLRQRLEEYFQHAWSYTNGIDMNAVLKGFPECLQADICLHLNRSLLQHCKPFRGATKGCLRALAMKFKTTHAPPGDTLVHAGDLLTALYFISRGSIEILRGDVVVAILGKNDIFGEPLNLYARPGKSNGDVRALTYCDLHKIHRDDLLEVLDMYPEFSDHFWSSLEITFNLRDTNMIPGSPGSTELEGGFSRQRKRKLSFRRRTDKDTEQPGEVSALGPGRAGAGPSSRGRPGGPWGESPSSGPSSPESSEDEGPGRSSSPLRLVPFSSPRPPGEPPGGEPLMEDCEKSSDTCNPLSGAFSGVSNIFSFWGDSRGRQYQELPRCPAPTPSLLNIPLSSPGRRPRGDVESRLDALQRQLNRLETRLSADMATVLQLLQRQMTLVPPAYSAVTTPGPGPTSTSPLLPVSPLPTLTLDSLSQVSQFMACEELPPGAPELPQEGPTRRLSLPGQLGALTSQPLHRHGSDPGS

A word on the IC50: it is the concentration that inhibits the measured activity by half. The low end stands for greater potency, the high end for weaker potency. Usually Ki stands for the dissociation constant of the complex between target and ligand, obtained from inhibition or displacement. Lower therefore signals tighter binding. A word on the EC50: it is the concentration that produces a half-maximal response. As to `CN[C@@H](C)C(=O)c1ccc2c(c1)OCO2` [(S)-methylone], in series [1], the IC50 turned out to be 6.52 µM and the Ki came out at 3.95 µM. Besides, the EC50 on SERT turned out to be 1.18 µM. In addition, the EC50 at DAT worked out at 3.28 µM. Besides, the “Estimated IC50” value on hERG is given as “N/C (N/C indicates observed mean inhibition was <25%)”. Further, the “Effect on the cardiac ion channels tested” value in the series on cardiac ion channels is reported as “do not directly inhibit the activity of cardiac channels”. Besides, the “Antidepressant-like effect in the FST” value in series [2] was “mimicked the rapid and robust antidepressant-like effect of racemic methylone”.
Regarding `CN[C@H](C)C(=O)c1ccc2c(c1)OCO2` [(R)-methylone], in series [1], the IC50 worked out at 34.7 µM and the Ki came to 21.1 µM. Also, the “Potency relative to racemic methylone” value in series [1] (SERT binding) was “approximately three-fold less potent”. In addition, a half-maximal response at DAT (EC50) required 4.77 µM. In addition, on hERG, the “Estimated IC50” value is listed as “N/C (N/C indicates observed mean inhibition was <25%)”. Besides, the “Effect on the cardiac ion channels tested” value in the series with cardiac ion channels was “do not directly inhibit the activity of cardiac channels”. Besides, in series [2], the “Antidepressant-like effect in the FST” value is “no effect”.
